Reference: patent publication US10471139B2, “Toll-like receptor agonists” (The University of Kansas, priority 2013, dated 2019)
Like-named read-outs stand apart in the source and are kept apart here.

Experiments:
human TLR7 = biological target: T1, human TLR7 (Homo sapiens, UniProt Q9NYK1); experiment: Human TLR7 reporter gene assay (NF-κB induction), HEK-Blue-7 cells; format: cell-based; settings: for hTLR7-agonistic Activity (EC50): human TLR7-specific reporter gene assay, Inactive = no activity up to 500 μg/mL
T1 construct: expressed in transfected cells; host or cells: HEK293 (HEK-Blue-7)
T1 sequence (Q9NYK1 27-1049): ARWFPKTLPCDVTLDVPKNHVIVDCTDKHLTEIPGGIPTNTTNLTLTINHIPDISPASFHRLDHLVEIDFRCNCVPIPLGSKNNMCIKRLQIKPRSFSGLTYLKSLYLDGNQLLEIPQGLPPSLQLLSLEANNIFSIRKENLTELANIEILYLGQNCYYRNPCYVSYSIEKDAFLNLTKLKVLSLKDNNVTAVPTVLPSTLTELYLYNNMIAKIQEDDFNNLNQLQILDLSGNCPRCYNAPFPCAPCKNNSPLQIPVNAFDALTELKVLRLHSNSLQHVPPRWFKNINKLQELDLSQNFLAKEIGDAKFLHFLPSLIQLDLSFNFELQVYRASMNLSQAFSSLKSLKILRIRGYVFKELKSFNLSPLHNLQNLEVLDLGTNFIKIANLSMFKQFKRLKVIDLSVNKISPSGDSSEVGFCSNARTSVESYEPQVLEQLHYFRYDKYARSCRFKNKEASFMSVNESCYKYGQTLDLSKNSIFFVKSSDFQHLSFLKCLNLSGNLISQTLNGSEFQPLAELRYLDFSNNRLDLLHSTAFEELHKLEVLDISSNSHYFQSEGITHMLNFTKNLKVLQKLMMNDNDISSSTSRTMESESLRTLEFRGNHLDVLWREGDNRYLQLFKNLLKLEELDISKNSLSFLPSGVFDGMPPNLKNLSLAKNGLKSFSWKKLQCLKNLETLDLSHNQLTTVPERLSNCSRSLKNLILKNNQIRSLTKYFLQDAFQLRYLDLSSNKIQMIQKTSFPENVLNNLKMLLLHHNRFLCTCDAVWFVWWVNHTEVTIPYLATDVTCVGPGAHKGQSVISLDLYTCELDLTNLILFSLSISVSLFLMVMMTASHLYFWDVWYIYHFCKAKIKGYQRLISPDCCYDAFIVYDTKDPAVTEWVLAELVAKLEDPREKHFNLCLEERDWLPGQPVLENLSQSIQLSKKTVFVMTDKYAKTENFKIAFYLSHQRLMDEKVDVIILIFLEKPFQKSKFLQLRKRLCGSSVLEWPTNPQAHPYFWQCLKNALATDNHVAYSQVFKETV
From the text: (§1) Human TLR-7/-8 Reporter Gene Assays (NF-κB Induction).
(§2) The induction of NF-κB was quantified using HEK-Blue-7 (hTLR7-specific) and HEK-Blue-8 (hTLR8-specific) cells. HEK293 cells stably co-transfected with human TLR7 or human TLR8, MD2, and secreted alkaline phosphatase (sAP), were maintained in HEK-Blue™ Selection medium containing zeocin and normocin. Stable expression of secreted alkaline phosphatase (sAP) under control of NF-κB/AP-1 promoters is inducible by appropriate TLR agonists, and extracellular sAP in the supernatant is proportional to NF-κB induction.
(§3) HEK293 cells stably co-transfected with the appropriate hTLR (or NOD) and secreted alkaline phosphatase (sAP) were maintained in HEK-Blue™ Selection medium. Stable expression of secreted alkaline phosphatase (sAP) under control of NF-κB/AP-1 promoters is inducible by appropriate TLR/NOD agonists, and extracellular sAP in the supernatant is proportional to NF-κB induction.

human TLR8 = biological target: T2, human TLR8 (Homo sapiens, UniProt Q9NR97); experiment: Human TLR8 reporter gene assay (NF-κB induction), HEK-Blue-8 cells; format: cell-based
T2 construct: expressed in transfected cells; host or cells: HEK293 (HEK-Blue-8)
T2 sequence (Q9NR97 27-1041): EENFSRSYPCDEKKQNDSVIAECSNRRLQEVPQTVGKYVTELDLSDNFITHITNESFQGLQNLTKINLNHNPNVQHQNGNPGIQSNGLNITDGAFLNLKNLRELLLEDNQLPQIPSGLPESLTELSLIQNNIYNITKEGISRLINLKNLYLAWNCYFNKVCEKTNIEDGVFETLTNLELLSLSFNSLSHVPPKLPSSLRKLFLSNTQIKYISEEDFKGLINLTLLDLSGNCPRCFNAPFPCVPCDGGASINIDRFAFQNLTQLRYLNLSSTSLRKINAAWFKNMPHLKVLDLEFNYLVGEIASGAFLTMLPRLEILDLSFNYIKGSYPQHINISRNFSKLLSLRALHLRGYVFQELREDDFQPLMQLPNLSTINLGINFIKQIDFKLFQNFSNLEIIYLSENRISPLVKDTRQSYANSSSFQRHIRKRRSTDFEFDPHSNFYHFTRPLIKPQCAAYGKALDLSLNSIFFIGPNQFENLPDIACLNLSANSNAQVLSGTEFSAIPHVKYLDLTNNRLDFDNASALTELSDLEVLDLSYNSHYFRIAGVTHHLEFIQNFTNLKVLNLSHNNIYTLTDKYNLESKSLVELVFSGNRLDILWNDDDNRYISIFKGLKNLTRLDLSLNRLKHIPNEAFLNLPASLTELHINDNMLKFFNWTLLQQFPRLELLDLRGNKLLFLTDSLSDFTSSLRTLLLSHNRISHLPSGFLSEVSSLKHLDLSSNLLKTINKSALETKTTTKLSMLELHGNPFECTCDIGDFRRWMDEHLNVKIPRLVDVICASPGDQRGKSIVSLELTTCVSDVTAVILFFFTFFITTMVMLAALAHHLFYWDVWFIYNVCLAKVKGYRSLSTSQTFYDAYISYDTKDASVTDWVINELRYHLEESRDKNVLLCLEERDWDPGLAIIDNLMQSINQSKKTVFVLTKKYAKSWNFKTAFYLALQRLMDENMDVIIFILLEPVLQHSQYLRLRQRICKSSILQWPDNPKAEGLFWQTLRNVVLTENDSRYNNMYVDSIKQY
From the text: as §1, §2, §3

[1] = human TLR 8-specific reporter gene assays
[2] = human TLR 8-specific reporter gene assays, read-out: hTLR8 Agonistic Activity (EC50)
[3] = primary screens, read-out: TLR8-agonistic activity EC50

CCCCc1nc2c(N)nc3ccccc3c2n1Cc1ccccc1 [1-benzyl-2-butyl-1H-imidazo[4,5-c]quinolin-4-amine, reference compound]
EC50 (human TLR7; primary screen, read-out: TLR7-specific agonistic activity EC50): 0.06 µM

CCCCc1nc2c(NC(C)=O)nccc2n1Cc1ccccc1 [Compound 6a, N-(1-Benzyl-2-butyl-1H-imidazo[4,5-c]pyridin-4-yl)acetamide]
hTLR7-agonistic Activity (EC50) (human TLR7): Inactive^a | TLR7-specific agonistic activity EC50 (human TLR7; primary screen): complete abrogation of activity

CCCCc1nc2c(NC(=O)CCC)nccc2n1Cc1ccccc1 [Compound 6b, N-(1-Benzyl-2-butyl-1H-imidazo[4,5-c]pyridin-4-yl) butyramide]
hTLR7-agonistic Activity (EC50) (human TLR7): Inactive | TLR7-specific agonistic activity EC50 (human TLR7; primary screen): complete abrogation of activity

CCCCNc1nccc2c1nc(CCCC)n2Cc1ccccc1 [Compound 11a, 1-Benzyl-N,2-dibutyl-1H-imidazo[4,5-c]pyridin-4-amine]
hTLR7-agonistic Activity (EC50) (human TLR7): Inactive

CCCCc1nc2c(NCc3ccccc3)nccc2n1Cc1ccccc1 [Compound 11b, N,1-Dibenzyl-2-butyl-1H-imidazo[4,5-c]pyridin-4-amine]
hTLR7-agonistic Activity (EC50) (human TLR7): Inactive

CCCCC1(O)C(N)=Nc2ccccc21 (stereo not drawn) [Compound A5, 2-amino-3-butyl-3H-indol-3-ol]
hTLR8 Agonistic Activity (EC50) (human TLR8; [1]): Inactive | TLR8-agonistic activity EC50 (human TLR8; primary screens): inactive

CCCCn1c(N)nc2ccccc21 [Compound A8a, 1-butyl-1H-benz[d]imidazol-2-amine]
EC50 (human TLR8; [2]): 7.3 µM

CCCCCn1c(N)nc2ccccc21 [Compound A8b, 1-Pentyl-1H-benzo[d]imidazol-2-amine]
EC50 (human TLR8; [3]): 3.23 µM

CCCCCCn1c(N)nc2ccccc21 [Compound A8c, 1-Hexyl-1H-benzo[d]imidazol-2-amine]
EC50 (human TLR8; [2]): 3.96 µM

Nc1nc2ccccc2n1Cc1ccccc1 [Compound A8d, 1-Benzyl-1H-benzo[d]imidazol-2-amine]
hTLR8 Agonistic Activity (EC50) (human TLR8; [1]): Inactive

NCc1cccc(Cn2c(N)nc3ccccc32)c1 [Compound A8f, 1-(3-(aminomethyl)benzyl)-1H-benzo[d]imidazol-2-amine]
hTLR8 Agonistic Activity (EC50) (human TLR8; [1]): Inactive

CCCCOC(=O)n1c(N)nc2ccccc21 [Compound A9, butyl 2-amino-1H-benzo[d]imidazole-1-carboxylate]
hTLR8 Agonistic Activity (EC50) (human TLR8; [1]): Inactive | TLR8-agonistic activity EC50 (human TLR8; primary screens): completely abrogated activity

CCCCCn1c(NC(C)=O)nc2ccccc21 [Compound A10, N-(1-pentyl-1H-benzo[d]imidazol-2-yl)acetamide]
hTLR8 Agonistic Activity (EC50) (human TLR8; [1]): Inactive | TLR8-agonistic activity EC50 (human TLR8; primary screens): completely abrogated activity

CCCCCn1c(N)nc2cc3ccccc3cc21 [Compound A13, 1-Pentyl-1H-naphtho[2,3-d]imidazol-2-amine]
hTLR8 Agonistic Activity (EC50) (human TLR8; [1]): Inactive

CCCCCn1c(N)nc2ccc3ccccc3c21 [Compound A18, 1-pentyl-1H-naphtho[1,2-d]imidazol-2-amine]
hTLR8 Agonistic Activity (EC50) (human TLR8; [1]): Inactive

CCCCCn1c(N)nc2c3ccccc3ccc21 [Compound A23, 3-Pentyl-3H-naphtho[1,2-d]imidazol-2-amine]
EC50 (human TLR8; [3]): 3.16 µM

CCCCCn1c(N)nc2ncccc21 [Compound A27a, 1-Pentyl-1H-imidazo[4,5-b]pyridin-2-amine]
hTLR8 Agonistic Activity (EC50) (human TLR8; [1]): Inactive

CCCCCn1c(N)nc2cnccc21 [Compound A27b, 1-Pentyl-1H-imidazo[4,5-c]pyridin-2-amine]
hTLR8 Agonistic Activity (EC50) (human TLR8; [1]): Inactive

CCCCCn1c(N)nc2ccncc21 [Compound A27c, 3-Pentyl-3H-imidazo[4,5-c]pyridin-2-amine]
hTLR8 Agonistic Activity (EC50) (human TLR8; [1]): Inactive

CCCCCn1c(N)nc2cccnc21 [Compound A27d, 3-Pentyl-3H-imidazo[4,5-b]pyridin-2-amine]
hTLR8 Agonistic Activity (EC50) (human TLR8; [1]): Inactive

CCCCCn1c(N)nc2cc(C)ccc21 [Compound A31b, 5-Methyl-1-pentyl-1H-benzo[d]imidazol-2-amine]
EC50 (human TLR8; [2]): 4.57 µM

CCCCCn1c(N)nc2ccc(C)cc21 [Compound A31c, 6-Methyl-1-pentyl-1H-benzo[d]imidazol-2-amine]
EC50 (human TLR8; [2]): 7.21 µM

CCCCCn1c(N)nc2cccc(C)c21 [Compound A31d, 7-Methyl-1-pentyl-1H-benzo[d]imidazol-2-amine]
EC50 (human TLR8; [2]): 6.61 µM

CCCCCn1c(N)nc2c(OC)cccc21 [Compound A31e, 4-Methoxy-1-pentyl-1H-benzo[d]imidazol-2-amine]
EC50 (human TLR8; [3]): 3.74 µM

CCCCCn1c(N)nc2c(F)cccc21 [Compound A31f, 4-Fluoro-1-pentyl-1H-benzo[d]imidazol-2-amine]
hTLR8 Agonistic Activity (EC50) (human TLR8; [1]): Inactive

CCCCCn1c(N)nc2c(Cl)cccc21 [Compound A31g, 4-Chloro-1-pentyl-1H-benzo[d]imidazol-2-amine]
hTLR8 Agonistic Activity (EC50) (human TLR8; [1]): Inactive

CCCCCn1c(N)nc2c(C(F)(F)F)cccc21 [Compound A31h, 1-Pentyl-4-(trifluoromethyl)-1H-benzo[d]imidazol-2-amine]
hTLR8 Agonistic Activity (EC50) (human TLR8; [1]): Inactive

CCCCCn1c(N)nc2c(Br)cccc21 [Compound A31i, 4-Bromo-1-pentyl-1H-benzo[d]imidazol-2-amine]
hTLR8 Agonistic Activity (EC50) (human TLR8; [1]): Inactive

CCCCCn1c(N)nc2c(CC)cccc21 [Compound A31j, 4-Ethyl-1-pentyl-1H-benzo[d]imidazol-2-amine]
EC50 (human TLR8; [2]): 1.65 µM

CCCCCn1c(N)nc2c(N(C)C)cccc21 [Compound A31k, N^4,N^4-demethyl-1-pentyl-1H-benzo[d]imidazole-2,4-diamine]
EC50 (human TLR8; [2]): 7.12 µM

CCCCCn1c(N)nc2c(-c3ccccc3)cccc21 [Compound A31l, 1-pentyl-4-phenyl-1H-benzo[d]imidazol-2-amine]
hTLR8 Agonistic Activity (EC50) (human TLR8; [1]): Inactive | TLR8-agonistic activity EC50 (human TLR8; primary screens): abrogated activity

CCCCCn1c(N)nc2c(Cc3ccccc3)cccc21 [Compound A31m, 4-benzyl-1-pentyl-1H-benzo[d]imidazol-2-amine]
hTLR8 Agonistic Activity (EC50) (human TLR8; [1]): Inactive | TLR8-agonistic activity EC50 (human TLR8; primary screens): abrogated activity

CCCCCn1c(N)nc2c(OCc3ccccc3)cccc21 [Compound A35, 4-Benzyloxy-1-pentyl-1H-benzoimidazol-2-ylamine]
hTLR8 Agonistic Activity (EC50) (human TLR8; [1]): Inactive | TLR8-agonistic activity EC50 (human TLR8; primary screens): abrogated activity

CCCCCn1c(N)nc2c(O)cccc21 [Compound A36, 2-Amino-1-pentyl-1H-benzoimidazol-4-ol]
EC50 (human TLR8; [2]): 5.01 µM

CCCCCn1c(N)nc2c([N+](=O)[O-])cccc21 [Compound A39, 4-Nitro-1-pentyl-1H-benzoimidazol-2-ylamine]
hTLR8 Agonistic Activity (EC50) (human TLR8; [1]): Inactive | TLR8-agonistic activity EC50 (human TLR8; primary screens): inactive

CCCCCn1c(N)nc2c(N)cccc21 [Compound A40, 1-Pentyl-1H-benzoimidazole-2,4-diamine]
EC50 (human TLR8; [2]): 6.6 µM
